# Source: ChEMBL document CHEMBL3580659, “One-pot multicomponent synthesis of indole incorporated thiazolylcoumarins and their antibacterial, anticancer and DNA cleavage studies” (2015)
# Tests used:
# Assay type in all cases: functional
# SK-OV-3 [1] = experiment: Cytotoxicity against human SKOV3 cells assessed as cell growth level at 100 uM after 48 hrs by sulforhodamine B assay
# PC-3 [2] = experiment: Cytotoxicity against human PC3 cells assessed as cell growth level at 100 uM after 48 hrs by sulforhodamine B assay
# NCI-H322M [3] = experiment: Cytotoxicity against human NCI-H322M cells assessed as cell growth level at 10 nM after 48 hrs by sulforhodamine B assay
# HCC 2998 [4] = experiment: Cytotoxicity against human HCC2998 cells assessed as cell growth level at 10 nM after 48 hrs by sulforhodamine B assay
# SK-OV-3 [5] = experiment: Cytotoxicity against human SKOV3 cells assessed as cell growth level at 10 nM after 48 hrs by sulforhodamine B assay
# 786-0 = experiment: Cytotoxicity against human 786-0 cells assessed as cell growth level at 10 nM after 48 hrs by sulforhodamine B assay
# T47D = experiment: Cytotoxicity against human T47D cells assessed as cell growth level at 10 nM after 48 hrs by sulforhodamine B assay
# SNB-19 = experiment: Cytotoxicity against human SNB19 cells assessed as cell growth level at 100 nM after 48 hrs by sulforhodamine B assay
# LOX IMVI [6] = experiment: Cytotoxicity against human LOXIMVI cells assessed as cell growth level at 100 nM after 48 hrs by sulforhodamine B assay
# Malme-3M = experiment: Cytotoxicity against human MALME-3M cells assessed as cell growth level at 100 nM after 48 hrs by sulforhodamine B assay
# OVCAR-5 = experiment: Cytotoxicity against human OVCAR5 cells assessed as cell growth level at 100 nM after 48 hrs by sulforhodamine B assay
# [7] = Cytotoxicity against human NCI-ADR-RES cells assessed as cell growth level at 100 nM after 48 hrs by sulforhodamine B assay
# UO-31 = experiment: Cytotoxicity against human UO31 cells assessed as cell growth level at 100 nM after 48 hrs by sulforhodamine B assay
# Bacillus subtilis = experiment: Antibacterial activity against Bacillus subtilis assessed as bacterial growth inhibition at 50 ug/ml after 24 hrs by cup-plate agar diffusion method; conditions: read-out: IZ
# CCRF-CEM = experiment: Cytotoxicity against human CCRF-CEM cells assessed as cell growth level at 10 uM after 48 hrs by sulforhodamine B assay
# DU-145 = experiment: Cytotoxicity against human DU145 cells assessed as cell growth level at 100 nM after 48 hrs by sulforhodamine B assay
# RPMI-8226 = experiment: Cytotoxicity against human RPMI8226 cells assessed as cell growth level at 1 uM after 48 hrs by sulforhodamine B assay
# HCT-116 [8] = experiment: Cytotoxicity against human HCT116 cells assessed as cell growth level at 1 uM after 48 hrs by sulforhodamine B assay
# HCC 2998 [9] = experiment: Cytotoxicity against human HCC2998 cells assessed as cell growth level at 10 uM after 48 hrs by sulforhodamine B assay
# HCT-116 [10] = experiment: Cytotoxicity against human HCT116 cells assessed as cell growth level at 10 uM after 48 hrs by sulforhodamine B assay
# SN12C [11] = experiment: Cytotoxicity against human SN12C cells assessed as cell growth level at 10 uM after 48 hrs by sulforhodamine B assay
# PC-3 [12] = experiment: Cytotoxicity against human PC3 cells assessed as cell growth level at 10 uM after 48 hrs by sulforhodamine B assay
# SW-620 = experiment: Cytotoxicity against human SW620 cells assessed as cell growth level at 1 uM after 48 hrs by sulforhodamine B assay
# SF-295 [13] = experiment: Cytotoxicity against human SF295 cells assessed as cell growth level at 1 uM after 48 hrs by sulforhodamine B assay
# SF-539 = experiment: Cytotoxicity against human SF539 cells assessed as cell growth level at 1 uM after 48 hrs by sulforhodamine B assay
# M14 = experiment: Cytotoxicity against human M14 cells assessed as cell growth level at 1 uM after 48 hrs by sulforhodamine B assay
# SK-MEL-2 = experiment: Cytotoxicity against human SK-MEL-2 cells assessed as cell growth level at 1 uM after 48 hrs by sulforhodamine B assay
# UACC-257 = experiment: Cytotoxicity against human UACC257 cells assessed as cell growth level at 1 uM after 48 hrs by sulforhodamine B assay
# UACC-62 = experiment: Cytotoxicity against human UACC62 cells assessed as cell growth level at 1 uM after 48 hrs by sulforhodamine B assay
# [14] = Cytotoxicity against human NCI-ADR-RES cells assessed as cell growth level at 1 uM after 48 hrs by sulforhodamine B assay
# K562 = experiment: Cytotoxicity against human K562 cells assessed as cell growth level at 100 uM after 48 hrs by sulforhodamine B assay
# HOP-62 = experiment: Cytotoxicity against human HOP62 cells after 48 hrs by sulforhodamine B assay; conditions: HOP-62, 48 h
# NCI-H322M [15] = experiment: Cytotoxicity against human NCI-H322M cells after 48 hrs by sulforhodamine B assay
# COLO 205 = experiment: Cytotoxicity against human COLO205 cells after 48 hrs by sulforhodamine B assay; conditions: COLO 205, 48 h
# SF-268 = experiment: Cytotoxicity against human SF268 cells after 48 hrs by sulforhodamine B assay; conditions: SF-268, 48 h
# SF-295 [16] = experiment: Cytotoxicity against human SF295 cells assessed as cell growth level at 100 uM after 48 hrs by sulforhodamine B assay
# LOX IMVI [17] = experiment: Cytotoxicity against human LOXIMVI cells after 48 hrs by sulforhodamine B assay
# SN12C [18] = experiment: Cytotoxicity against human SN12C cells after 48 hrs by sulforhodamine B assay
# [19] = read-out: LC50 (the source's name)
# [20] = read-out: pLC50 (the source's name) (converted)
smiles,measurement,setting,value
O=c1oc2ccccc2cc1-c1csc(N/N=C/c2c[nH]c3ccccc23)n1,Activity,SK-OV-3 [1],-48%
same,Activity,PC-3 [2],-20%
same,Activity,NCI-H322M [3],103%
same,Activity,HCC 2998 [4],99%
same,Activity,SK-OV-3 [5],94%
same,Activity,786-0,86%
same,Activity,T47D,101%
same,Activity,SNB-19,89%
same,Activity,LOX IMVI [6],92%
same,Activity,Malme-3M,94%
same,Activity,OVCAR-5,99%
same,Activity,[7],110%
same,Activity,UO-31,91%
same,zone of inhibition at 50 µg/mL,Bacillus subtilis,18 mm
same,Activity,CCRF-CEM,-26.91%
same,Activity,DU-145,92%
same,Activity,RPMI-8226,48%
same,Activity,HCT-116 [8],81%
same,Activity,HCC 2998 [9],8.49%
same,Activity,HCT-116 [10],7.48%
same,Activity,SN12C [11],0.22%
same,Activity,PC-3 [12],-37.33%
same,Activity,SW-620,72%
same,Activity,SF-295 [13],80%
same,Activity,SF-539,87%
same,Activity,M14,89%
same,Activity,SK-MEL-2,90%
same,Activity,UACC-257,82%
same,Activity,UACC-62,69%
same,Activity,[14],104%
same,Activity,K562,-38%
same,GI50,HOP-62; read-out: GI50,3.73 µM
same,LC50,HOP-62; read-out: LC50,> 100 µM
same,TGI,HOP-62; read-out: TGI,20 µM
same,GI50,HOP-62; read-out: pGI50 (converted),3.72 µM
same,LC50,HOP-62; read-out: pLC50 (converted),> 100 µM
same,TGI,HOP-62; read-out: pTGI (converted),20 µM
same,GI50,NCI-H322M [15]; read-out: GI50,3.16 µM
same,LC50 (concentration killing 50% of cells),NCI-H322M [15]; read-out: LC50,> 100 µM
same,TGI,NCI-H322M [15]; read-out: TGI,32.2 µM
same,GI50,NCI-H322M [15]; read-out: pGI50 (converted),3.16 µM
same,LC50 (concentration killing 50% of cells),NCI-H322M [15]; read-out: pLC50 (converted),> 100 µM
same,TGI,NCI-H322M [15]; read-out: pTGI (converted),32.4 µM
same,GI50,COLO 205; read-out: GI50,1.92 µM
same,LC50 (concentration killing 50% of cells),COLO 205; read-out: LC50,6.55 µM
same,TGI,COLO 205; read-out: TGI,3.55 µM
same,GI50,COLO 205; read-out: pGI50 (converted),1.91 µM
same,LC50 (concentration killing 50% of cells),COLO 205; read-out: pLC50 (converted),6.61 µM
same,TGI,COLO 205; read-out: pTGI (converted),3.55 µM
same,GI50,SF-268; read-out: GI50,1.93 µM
same,CC50,SF-268; [19],> 100 µM
same,TGI,SF-268; read-out: TGI,8.77 µM
same,GI50,SF-268; read-out: pGI50 (converted),1.95 µM
same,CC50,SF-268; [20],> 100 µM
same,TGI,SF-268; read-out: pTGI (converted),8.71 µM
same,Activity,SF-295 [16],-71%
same,GI50,LOX IMVI [17]; read-out: GI50,1.93 µM
same,CC50,LOX IMVI [17]; [19],6.71 µM
same,TGI,LOX IMVI [17]; read-out: TGI,3.6 µM
same,GI50,LOX IMVI [17]; read-out: pGI50 (converted),1.91 µM
same,CC50,LOX IMVI [17]; [20],6.76 µM
same,TGI,LOX IMVI [17]; read-out: pTGI (converted),3.63 µM
same,GI50,SN12C [18]; read-out: GI50,1.08 µM
same,CC50,SN12C [18]; [19],> 100 µM
same,TGI,SN12C [18]; read-out: TGI,3.96 µM
same,GI50,SN12C [18]; read-out: pGI50 (converted),1.07 µM
same,CC50,SN12C [18]; [20],> 100 µM
same,TGI,SN12C [18]; read-out: pTGI (converted),3.98 µM
